Assay results from patent US8378100B2, “Phosphonate derivatives as autotaxin inhibitors” (University of Virginia Patent Foundation, priority 2008, dated 2013).

Molecular target: recombinant human ATX (Homo sapiens, UniProt Q13822)
Test: Choline detection assay for ATX
Assay type: biochemical
Details: for ATX activity (%) 1 μM: 1 μM test compound; for ATX activity (%) 1 μM / ATX activity (%) 10 Mm / ATX activity (%) 100 μM / ATX activity (%) 10 μM: activity without test compound = 100%; for ATX activity (%) 10 Mm: 10 μM test compound as printed; for ATX activity (%) 100 μM: 100 μM test compound; for ATX inhibition (in words): compounds synthesized from D-tyrosine; for ATX activity (%) 10 μM: 10 μM test compound
Description: The phosphonate derivatives were tested in choline detection assay for ATX inhibition. The ATX activity assay was conducted in 0.1 ml, buffer: (in mM: Tris-HCl 100, pH9, NaCl 150, MgCl2 5, CoSO4 0.03, 0.05% Triton X-100), 1 mM 18:1 LPC, using recombinant human ATX with or without test compounds; incubation was for 16 hours at 37° C. The released choline was detected as follows: Samples were mixed with 0.15 ml of 50 mM TrisHCl containing 2.7 mM TOOS(N-ethyl-N-2-hydroxy-3-sulfopropyl)-m-toluidine, 2.7 mM 4-AAP (4-aminoantipyrine), 47.7 U/ml horseradish peroxidase, 18 U/ml choline oxidase, and 5 mM MgCl2. After 30 min incubation at 37° C., light absorbance (550 nm) was determined, and the amount of choline release was calculated from a standard curve.
The ATX activity was measured in the presence of the test compounds under different concentrations (100 μM, 10 μM and 1 μM). The ATX activity without TEST compounds was used as the standard (100% activity). Some β-hydroxy phosphonate derivatives inhibited ATX activity at only the highest concentration tested. […] These two compounds were synthesized from protected L-tyrosine and they are diastereomers. The less polar isomer, f17, (also known as VPC8a202) was able to inhibit 73% of ATX activity at 1 μM.

[1] = table of g1-g15 (β-keto phosphonates)

| ATX activity (%) 1 μM (Table 1 (f1-f34), 1 µM) [%] | ATX activity (%) 10 Mm (Table 1 (f1-f34)) [%] | ATX activity (%) 100 μM (Table 1 (f1-f34), 100 µM) [%] | Compound | other results |
| --- | --- | --- | --- | --- |
| 108 | 108 | 90 | CCCCCCCCCCCCCCCC(=O)N[C@H](Cc1ccc(OCCC)cc1)C(O)CP(=O)(O)O (single isomer, unassigned) [f24] | – |
| 110 | 97 | 77 | CCCCCCCCCCCCCCCC(=O)N[C@@H](Cc1ccc(OCCC)cc1)C(O)CP(=O)(O)O (single isomer, unassigned) [f25] | – |
| 100 | 100 | 83 | CCCCCCCCCCCCCCCC(=O)N[C@@H](Cc1ccc(OCCC)cc1)C(O)CP(=O)(O)O (single isomer, unassigned) [f26] | – |
| 81 | 85 | 80 | CCCCCCCCCCCCCCCC(=O)N[C@H](Cc1ccc(OCCCCC)cc1)C(O)CP(=O)(O)O (single isomer, unassigned) [f27] | – |
| 86 | 82 | 70 | CCCCCCCCCCCCCCCC(=O)N[C@H](Cc1ccc(OCCCCC)cc1)C(O)CP(=O)(O)O (single isomer, unassigned) [f28] | – |
| 98 | 83 | 67 | CCCCCCCCCCCCCCCC(=O)N[C@@H](Cc1ccc(OCCCCC)cc1)C(O)CP(=O)(O)O (single isomer, unassigned) [f29] | – |
| 94 | 90 | 70 | CCCCCCCCCCCCCCCC(=O)N[C@@H](Cc1ccc(OCCCCC)cc1)C(O)CP(=O)(O)O (single isomer, unassigned) [f30] | – |

The next lines start with the compound.

| Compound | ATX activity (%) 1 μM (Table 1 (f1-f34), 1 µM) [%] | ATX activity (%) 10 Mm (Table 1 (f1-f34)) [%] | ATX activity (%) 100 μM (Table 1 (f1-f34), 100 µM) [%] | other results |
| --- | --- | --- | --- | --- |
| CCCCCCCCCCCCCCCC(=O)N[C@H](Cc1ccc(OCc2ccccc2)cc1)C(O)CP(=O)(O)O (single isomer, unassigned) [f5] | 83 | 82 | 83 | – |
| CCCCCCCCCCCCCCCC(=O)N[C@H](Cc1ccc(OCc2ccccc2)cc1)C(O)CP(=O)(O)O (single isomer, unassigned) [f6] | 80 | 81 | 83 | – |
| CCCCCCCCCCCCCCCC(=O)N[C@@H](Cc1ccc(OCc2ccccc2)cc1)C(O)CP(=O)(O)O (single isomer, unassigned) [f7] | 97 | 77 | 68 | – |
| CCCCCCCCCCCCCCCC(=O)N[C@@H](Cc1ccc(OCc2ccccc2)cc1)C(O)CP(=O)(O)O (single isomer, unassigned) [f8] | 76 | 83 | 78 | – |
| CCCCCCCCCCCCCCCC(=O)N[C@H](Cc1ccc(OCc2ccccc2)cc1)C(O)CP(=O)(O)O (single isomer, unassigned) [f9] | 103 | 76 | 60 | – |
| CCCCCCCCCCCCCCCC(=O)N[C@H](Cc1ccc(OCC2CCCCC2)cc1)C(O)CP(=O)(O)O (single isomer, unassigned) [f13] | – | 80 | – | ATX activity (%) 1 μM (Table 1 (f1-f34)): 84%; ATX activity (%) 100 μM (Table 1 (f1-f34)): 67% |
| CCCCCCCCCCCCCCCC(=O)N[C@@H](Cc1ccc(OCC2CCCCC2)cc1)C(O)CP(=O)(O)O (single isomer, unassigned) [f14] | – | 80 | – | ATX activity (%) 1 μM (Table 1 (f1-f34)): 80%; ATX activity (%) 100 μM (Table 1 (f1-f34)): 80% |
| CCCCCCCCCCCCCCCC(=O)N[C@H](Cc1ccc(OCc2ncc(C)c(OC)c2C)cc1)C(O)CP(=O)(O)O (single isomer, unassigned) [f15] | 108 | 95 | 63 | ATX inhibition (in words): did potently inhibit ATX |
| CCCCCCCCCCCCCCCC(=O)N[C@H](Cc1ccc(OCc2ncc(C)c(OC)c2C)cc1)C(O)CP(=O)(O)O (single isomer, unassigned) [f16] | 69 | 64 | 47 | ATX inhibition (in words): did potently inhibit ATX |
| CCCCCCCCCCCCCCCC(=O)N[C@@H](Cc1ccc(OCc2ncc(C)c(OC)c2C)cc1)C(O)CP(=O)(O)O (single isomer, unassigned) [f18] | – | 21 | – | ATX activity (%) 1 μM (Table 1 (f1-f34)): 63%; ATX activity (%) 100 μM (Table 1 (f1-f34)): 8%; inhibition of ATX (in words) (at 1 μM): significant inhibition |
| CCCCCCCCCCCCCCCC(=O)N[C@H](Cc1ccc(OC)cc1)C(O)CP(=O)(O)O (single isomer, unassigned) [f19] | 100 | 78 | 57 | – |
| CCCCCCCCCCCCCCCC(=O)N[C@H](Cc1ccc(OC)cc1)C(O)CP(=O)(O)O (single isomer, unassigned) [f20] | 95 | 84 | 82 | – |
| CCCCCCCCCCCCCCCC(=O)N[C@@H](Cc1ccc(OC)cc1)C(O)CP(=O)(O)O (single isomer, unassigned) [f21] | 77 | 56 | 36 | – |
| CCCCCCCCCCCCCCCC(=O)N[C@@H](Cc1ccc(OC)cc1)C(O)CP(=O)(O)O (single isomer, unassigned) [f22] | 84 | 80 | 69 | – |
| CCCCCCCCCCCCCCCC(=O)N[C@H](Cc1ccc(OCCC)cc1)C(O)CP(=O)(O)O (single isomer, unassigned) [f23] | 80 | 79 | 72 | – |
| CCCCCCCCCC(=O)N[C@H](Cc1ccc(OCc2ncc(C)c(OC)c2C)cc1)C(O)CP(=O)(O)O (single isomer, unassigned) [f35] | – | – | – | ATX activity (%) 10 μM (Table 2 (f35-f44)): 86%; ATX activity (%) 100 μM (Table 2 (f35-f44)): 30% |
| CCCCCCCCCCCCCC(=O)N[C@H](Cc1ccc(OCc2ncc(C)c(OC)c2C)cc1)C(O)CP(=O)(O)O (single isomer, unassigned) [f37] | – | – | – | ATX activity (%) 10 μM (Table 2 (f35-f44)): 99%; ATX activity (%) 100 μM (Table 2 (f35-f44), 100 µM): 67% |
| CCCCCCCCCCCCCC(=O)N[C@H](Cc1ccc(OCc2ncc(C)c(OC)c2C)cc1)C(O)CP(=O)(O)O (single isomer, unassigned) [f38] | – | – | – | ATX activity (%) 100 μM (Table 2 (f35-f44), 100 µM): 35% |
| CCCCCCCCCCCCCCCCCC(=O)N[C@@H](Cc1ccc(OCc2ncc(C)c(OC)c2C)cc1)C(O)CP(=O)(O)O (single isomer, unassigned) [f39] | – | – | – | ATX activity (%) 1 μM (Table 2 (f35-f44)): 101%; ATX activity (%) 10 μM (Table 2 (f35-f44), 10 µM): 91%; ATX activity (%) 100 μM (Table 2 (f35-f44), 100 µM): 81% |
| CCCCCCCCCCCCCCCCCC(=O)N[C@@H](Cc1ccc(OCc2ncc(C)c(OC)c2C)cc1)C(O)CP(=O)(O)O (single isomer, unassigned) [f40] | – | – | – | ATX activity (%) 10 μM (Table 2 (f35-f44), 10 µM): 90%; ATX activity (%) 100 μM (Table 2 (f35-f44), 100 µM): 62% |
| CCCCCCCC/C=C\CCCCCCCC(=O)N[C@@H](Cc1ccc(OCc2ncc(C)c(OC)c2C)cc1)C(O)CP(=O)(O)O (single isomer, unassigned) [f41] | – | – | – | ATX activity (%) 10 μM (Table 2 (f35-f44), 10 µM): 45%; ATX activity (%) 100 μM (Table 2 (f35-f44), 100 µM): 15% |
| CCCCCCCC/C=C\CCCCCCCC(=O)N[C@@H](Cc1ccc(OCc2ncc(C)c(OC)c2C)cc1)C(O)CP(=O)(O)O (single isomer, unassigned) [f42] | – | – | – | ATX activity (%) 1 μM (Table 2 (f35-f44)): 77%; ATX activity (%) 10 μM (Table 2 (f35-f44), 10 µM): 68%; ATX activity (%) 100 μM (Table 2 (f35-f44), 100 µM): 58% |
| CCCCCCCCCCCCCCCCCCCC(=O)NC(Cc1ccc(OCc2ncc(C)c(OC)c2C)cc1)C(O)CP(=O)(O)O (single isomer, unassigned) [f43] | – | – | – | ATX activity (%) 1 μM (Table 2 (f35-f44)): 64%; ATX activity (%) 10 μM (Table 2 (f35-f44)): 45%; ATX activity (%) 100 μM (Table 2 (f35-f44)): 10% |
| CCCCCCCCCCCCCCCC(=O)N[C@H](Cc1ccc(OCc2ccccc2)cc1)C(=O)CP(=O)(O)O [g3] | – | – | – | ATX activity (%) 10 μM [1]: 82%; ATX activity (%) 100 μM [1]: 76% |
| CCCCCCCCCCCCCCCC(=O)N[C@@H](Cc1ccc(OCc2ccccc2)cc1)C(=O)CP(=O)(O)O [g4] | – | – | – | ATX activity (%) 10 μM [1]: 71%; ATX activity (%) 100 μM [1]: 61% |
| CCCCCCCCCCCCCCCC(=O)N[C@@H](Cc1ccc(OCc2ncc(C)c(OC)c2C)cc1)C(=O)CP(=O)(O)O [g7] | – | – | – | ATX activity (%) 1 μM [1]: 71%; ATX activity (%) 10 μM [1]: 74%; ATX activity (%) 100 μM [1]: 26% |
| CCCCCCCCCCCCCCCC(=O)N[C@H](Cc1ccc(OC)cc1)C(=O)CP(=O)(O)O [g8] | – | – | – | ATX activity (%) 1 μM [1]: 84%; ATX activity (%) 10 μM [1]: 71%; ATX activity (%) 100 μM [1]: 32% |
| CCCCCCCCCCCCCCCC(=O)N[C@@H](Cc1ccc(OC)cc1)C(=O)CP(=O)(O)O [g9] | – | – | – | ATX activity (%) 1 μM [1]: 96%; ATX activity (%) 10 μM [1]: 68%; ATX activity (%) 100 μM [1]: 45% |
